Here are results for three compounds from US20060228405A1, “Phospholipid-based pharmaceutical formulations and methods for producing and using same” (Conforma Therapeutics Corporation, priority 2005, published 2006).

The conditions of data set [1]: mean +/- SD; cited from earlier work.
The subject of data set [2] is tail vein. Put plainly: Intravenous injection and tolerance, tail vein injection into mice. Conditions: phospholipid dispersion. The format is in vivo. How it is done:
(§1) Pharmacokinetics for the solution formulation and the dispersion formulation were very similar. The method of the invention was also used to prepare dispersion formulations with the hydrochloride and phosphate salts of Compound 237. […] Dispersion formulations were also prepared using water soluble and slightly water soluble derivatives of geldanamycin. Specifically, similar dispersions containing DMAG were similarly formulated and well-tolerated upon tail vein injection into mice and rats.

Data set [3] concerns rat tail vein. Put plainly: Intravenous injection and tolerance, rat tail vein. The format is in vivo. Conditions: phospholipid dispersion; rats. How it is done: as §1
Data set [4] in a line: Solvent stability of low melt form of 17-AAG slurried in H2O:EtOH (90:10). Conditions: crystals slurried in H2O:EtOH (90:10). The class given is physicochemical. On the procedure: 17-AAG may be prepared from geldanamycin via reaction with allyamine in dry THF under a nitrogen atmosphere. The crude product may be purified by slurrying in H2O:EtOH (90:10), and the washed crystals obtained have a melting point of 206-212° C. by capillary melting point technique. A second product of 17-AAG can be obtained by dissolving and recrystallizing the crude product from 2-propyl alcohol (isopropanol). This second 17-AAG product has a melting point between 147-153° C. by capillary melting point technique. […] See Examples 1-2 for details of the preparation of the two polymorphic forms of 17-AAG. In addition to the high melt and low melt forms, it is well known that 17-AAG has an amorphous form.
The 17-AAG product from Example 2 was dissolved in 400 mL of H2O:EtOH (90:10) at 25° C. Filltration followed by aging at 45° C. for 8 hr gave […] (68.6 mmol) of 17-AAG as purple crystals (95% yield, >99% pure by HPLC monitored at 254 nm). m.p.=[…]. ^1H NMR and HPLC are consistent with the desired product.

In the case of `C=CCNC1=C2C[C@@H](C)C[C@H](OC)[C@H](O)[C@@H](C)/C=C(\C)[C@H](OC(N)=O)[C@@H](OC)/C=C\C=C(/C)C(=O)NC(=CC1=O)C2=O` [Compound 17-AAG, 17-allylamino-17-desmethyl-geldanamycin], the steady-state volume in data set [1] is 86.6+34.6 L/m^2.
For `CO[C@H]1/C=C\C=C(/C)C(=O)NC2=CC(=O)C(NCCN(C)C)=C(C[C@@H](C)C[C@H](OC)[C@H](O)[C@@H](C)/C=C(\C)[C@@H]1OC(N)=O)C2=O` [DMAG, 17-N,N-dimethylaminoethylaminogeldanamycin], the “tolerance upon tail vein injection” value in data set [2] and in data set [3] was “well-tolerated” each time.
On to `C=CCNC1=C2C[C@@H](C)C[C@H](OC)[C@H](O)[C@@H](C)/C=C(\C)[C@H](OC(N)=O)[C@@H](OC)/C=C\C=C(/C)C(=O)NC(=CC1=O)C2=O` [low melt form of 17-AAG, 17-allylamino-17-desmethyl-geldanamycin], for which the “conversion of low melt form to high melt form” value in data set [4] was “no conversion to the high melt form was observed”.
